# Data reported in patent US20240158446A1, “CYCLIC COMPOUND HAVING SELECTIVE INHIBITORY ACTION ON KRAS OVER HRAS AND NRAS” (CHUGAI SEIYAKU KABUSHIKI KAISHA, priority 2021, published 2024).
# Assays:
# [1] = biological target: GDP-bound HRAS wild-type protein (Homo sapiens, UniProt P01112); assay: Binding to HRAS by surface plasmon resonance (SPR), Single Cycle Kinetics; details: SPR, GDP-bound HRAS wild-type protein vs GDP-bound KRAS wild-type protein
# [2] = biological target: GDP-bound KRAS wild-type protein (Homo sapiens, UniProt P01116); assay: Binding to KRAS by surface plasmon resonance (SPR), Single Cycle Kinetics; details: SPR Single Cycle Kinetics, GDP-bound KRAS wild-type protein, 1:1 binding model; read-out: KRAS KD
# [3] = biological target: GDP-bound NRAS wild-type protein (Homo sapiens, UniProt P01111); assay: Binding to NRAS by surface plasmon resonance (SPR), Single Cycle Kinetics; details: SPR, GDP-bound NRAS wild-type protein vs GDP-bound KRAS wild-type protein
# Sequence of GDP-bound NRAS wild-type protein (P01111 whole entry): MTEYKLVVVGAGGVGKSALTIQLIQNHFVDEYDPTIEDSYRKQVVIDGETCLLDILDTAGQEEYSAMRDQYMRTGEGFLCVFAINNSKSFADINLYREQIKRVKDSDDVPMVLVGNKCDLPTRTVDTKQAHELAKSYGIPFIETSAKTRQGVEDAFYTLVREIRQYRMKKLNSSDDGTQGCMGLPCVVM
# Sequence of GDP-bound KRAS wild-type protein (P01116 whole entry): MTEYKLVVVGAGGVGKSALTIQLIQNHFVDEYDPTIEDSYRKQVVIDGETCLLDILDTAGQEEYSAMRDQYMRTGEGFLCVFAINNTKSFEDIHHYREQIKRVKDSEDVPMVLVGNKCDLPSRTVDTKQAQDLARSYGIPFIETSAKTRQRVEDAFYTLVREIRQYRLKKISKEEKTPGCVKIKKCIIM
# Sequence of GDP-bound HRAS wild-type protein (P01112 whole entry): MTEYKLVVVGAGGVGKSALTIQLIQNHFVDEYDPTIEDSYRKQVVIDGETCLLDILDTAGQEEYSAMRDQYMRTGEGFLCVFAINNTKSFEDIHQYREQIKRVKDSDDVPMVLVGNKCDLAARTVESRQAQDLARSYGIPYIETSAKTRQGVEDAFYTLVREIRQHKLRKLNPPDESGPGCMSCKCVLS
SMILES,HRAS/KRAS (ratio of KD value with respect to HRAS to KD value with respect to KRAS) [1],Kd [2] [nM],NRAS/KRAS (ratio of KD value with respect to NRAS to KD value with respect to KRAS) [3]
C#CC[C@H]1C(=O)N[C@@H]([C@@H](C)CC)C(=O)N(C)CC(=O)N(C)[C@H]2CCCCCN(C2=O)[C@@H](Cc2ccc(C(F)(F)F)cc2)C(=O)N(C)CC(=O)N[C@@H](CCc2cc(F)c(C(F)(F)F)c(F)c2)C(=O)N2C[C@H](OCC)C[C@H]2C(=O)NC2(CCC2)C(=O)N(C)[C@@H](C2CCCC2)C(=O)N(C)[C@H](C(=O)N(C)C)CC(=O)N1C [PP0666],B (a compound having 3 or more and less than 10 is denoted as B),0.33,B (a compound having 3 or more and less than 10 is denoted as B)
CCO[C@@H]1C[C@H]2C(=O)NC3(CCC3)C(=O)N(C)[C@@H](C3CCCC3)C(=O)N(C)[C@H](C(=O)N(C)C)CC(=O)N(C)[C@@H](CC3CC3)C(=O)N[C@@H]([C@@H](C)CC)C(=O)N(C)CC(=O)N(C)[C@H]3CCCCCN(C3=O)[C@@H](Cc3ccc(C(F)(F)F)cc3)C(=O)N(C)CC(=O)N[C@@H](CCc3cc(F)c(C(F)(F)F)c(F)c3)C(=O)N2C1 [PP0667],B (a compound having 3 or more and less than 10 is denoted as B),0.27,B (a compound having 3 or more and less than 10 is denoted as B)
CCO[C@@H]1C[C@H]2C(=O)NC3(CCC3)C(=O)N(C)[C@@H](C3CCCC3)C(=O)N(C)[C@H](C(=O)N(C)C)CC(=O)N(C)[C@@H](CC3CCC3)C(=O)N[C@@H]([C@@H](C)CC)C(=O)N(C)CC(=O)N(C)[C@H]3CCCCCN(C3=O)[C@@H](Cc3ccc(C(F)(F)F)cc3)C(=O)N(C)CC(=O)N[C@@H](CCc3cc(F)c(C(F)(F)F)c(F)c3)C(=O)N2C1 [PP0668],B (a compound having 3 or more and less than 10 is denoted as B),0.38,B (a compound having 3 or more and less than 10 is denoted as B)
CCO[C@@H]1C[C@H]2C(=O)NC3(CCC3)C(=O)N(C)[C@@H](C3CCCC3)C(=O)N(C)[C@H](C(=O)N(C)C)CC(=O)N(C)[C@@H](Cc3cccnc3)C(=O)N[C@@H]([C@@H](C)CC)C(=O)N(C)CC(=O)N(C)[C@H]3CCCCCN(C3=O)[C@@H](Cc3ccc(C(F)(F)F)cc3)C(=O)N(C)CC(=O)N[C@@H](CCc3cc(F)c(C(F)(F)F)c(F)c3)C(=O)N2C1 [PP0673],B (a compound having 3 or more and less than 10 is denoted as B),0.12,B (a compound having 3 or more and less than 10 is denoted as B)
CCO[C@@H]1C[C@H]2C(=O)NC3(CCC3)C(=O)N(C)[C@@H](C3CCCC3)C(=O)N(C)[C@H](C(=O)N(C)C)CC(=O)N(C)[C@@H](COC)C(=O)N[C@@H]([C@@H](C)CC)C(=O)N(C)CC(=O)N(C)[C@H]3CCCCCN(C3=O)[C@@H](Cc3ccc(C(F)(F)F)cc3)C(=O)N(C)CC(=O)N[C@@H](CCc3cc(F)c(C(F)(F)F)c(F)c3)C(=O)N2C1 [PP0674],B (a compound having 3 or more and less than 10 is denoted as B),0.16,B (a compound having 3 or more and less than 10 is denoted as B)
CCO[C@@H]1C[C@H]2C(=O)NC3(CCC3)C(=O)N(C)[C@@H](C3CCCC3)C(=O)N(C)[C@H](C(=O)N3CCOCC3)CC(=O)N(C)[C@@H](CC)C(=O)N[C@@H]([C@@H](C)CC)C(=O)N(C)CC(=O)N(C)[C@H]3CCCCCN(C3=O)[C@@H](Cc3ccc(C(F)(F)F)cc3)C(=O)N(C)CC(=O)N[C@@H](CCc3cc(F)c(C(F)(F)F)c(F)c3)C(=O)N2C1 [PP0678],B (a compound having 3 or more and less than 10 is denoted as B),0.47,B (a compound having 3 or more and less than 10 is denoted as B)
CCC[C@H]1C(=O)N[C@@H]([C@@H](C)CC)C(=O)N(C)CC(=O)N(C)[C@H]2CCCCCN(C2=O)[C@@H](Cc2ccc(C(F)(F)F)cc2)C(=O)N(C)CC(=O)N[C@@H](CCc2cc(F)c(C(F)(F)F)c(F)c2)C(=O)N2C[C@H](OCC)C[C@H]2C(=O)NC2(CCC2)C(=O)N(C)[C@@H](C2CCCC2)C(=O)N(C)[C@H](C(=O)N2CCOCC2)CC(=O)N1C [PP0679],B (a compound having 3 or more and less than 10 is denoted as B),0.58,B (a compound having 3 or more and less than 10 is denoted as B)
C#CC[C@H]1C(=O)N[C@@H]([C@@H](C)CC)C(=O)N(C)CC(=O)N(C)[C@H]2CCCCCN(C2=O)[C@@H](Cc2ccc(C(F)(F)F)cc2)C(=O)N(C)CC(=O)N[C@@H](CCc2cc(F)c(C(F)(F)F)c(F)c2)C(=O)N2C[C@H](OCC)C[C@H]2C(=O)NC2(CCC2)C(=O)N(C)[C@@H](C2CCCC2)C(=O)N(C)[C@H](C(=O)N2CCOCC2)CC(=O)N1C [PP0681],B (a compound having 3 or more and less than 10 is denoted as B),0.44,B (a compound having 3 or more and less than 10 is denoted as B)
CCO[C@@H]1C[C@H]2C(=O)NC3(CCC3)C(=O)N(C)[C@@H](C3CCCC3)C(=O)N(C)[C@H](C(=O)N3CCOCC3)CC(=O)N(C)[C@@H](COC)C(=O)N[C@@H]([C@@H](C)CC)C(=O)N(C)CC(=O)N(C)[C@H]3CCCCCN(C3=O)[C@@H](Cc3ccc(C(F)(F)F)cc3)C(=O)N(C)CC(=O)N[C@@H](CCc3cc(F)c(C(F)(F)F)c(F)c3)C(=O)N2C1 [PP0689],B (a compound having 3 or more and less than 10 is denoted as B),0.3,B (a compound having 3 or more and less than 10 is denoted as B)
CCO[C@@H]1C[C@H]2C(=O)NC3(CCC3)C(=O)N(C)[C@@H](C3CCCC3)C(=O)N(C)[C@H](C(=O)N3CCOCC3)CC(=O)N(C)[C@@H](CCOC)C(=O)N[C@@H]([C@@H](C)CC)C(=O)N(C)CC(=O)N(C)[C@H]3CCCCCN(C3=O)[C@@H](Cc3ccc(C(F)(F)F)cc3)C(=O)N(C)CC(=O)N[C@@H](CCc3cc(F)c(C(F)(F)F)c(F)c3)C(=O)N2C1 [PP0690],B (a compound having 3 or more and less than 10 is denoted as B),0.46,B (a compound having 3 or more and less than 10 is denoted as B)
CCO[C@@H]1C[C@H]2C(=O)NC3(CCC3)C(=O)N(C)[C@@H](C3CCCC3)C(=O)N(C)[C@H](C(=O)N(C)C)CC(=O)N(C)[C@@H](CC)C(=O)N[C@@H]([C@@H](C)CC)C(=O)N(C)CC(=O)N(C)[C@H]3CCCCN(C3=O)[C@@H](Cc3ccc(C(F)(F)F)cc3)C(=O)N(C)CC(=O)N[C@@H](CCc3cc(F)c(C(F)(F)F)c(F)c3)C(=O)N2C1 [PP0693],C (A compound having a KD ratio of 0.1 or more and less than 3 is denoted as C),0.016,C (A compound having a KD ratio of 0.1 or more and less than 3 is denoted as C)
CCC[C@H]1C(=O)N[C@@H]([C@@H](C)CC)C(=O)N(C)CC(=O)N(C)[C@H]2CCCCN(C2=O)[C@@H](Cc2ccc(C(F)(F)F)cc2)C(=O)N(C)CC(=O)N[C@@H](CCc2cc(F)c(C(F)(F)F)c(F)c2)C(=O)N2C[C@H](OCC)C[C@H]2C(=O)NC2(CCC2)C(=O)N(C)[C@@H](C2CCCC2)C(=O)N(C)[C@H](C(=O)N(C)C)CC(=O)N1C [PP0694],C (A compound having a KD ratio of 0.1 or more and less than 3 is denoted as C),0.025,C (A compound having a KD ratio of 0.1 or more and less than 3 is denoted as C)
C=CC[C@H]1C(=O)N[C@@H]([C@@H](C)CC)C(=O)N(C)CC(=O)N(C)[C@H]2CCCCN(C2=O)[C@@H](Cc2ccc(C(F)(F)F)cc2)C(=O)N(C)CC(=O)N[C@@H](CCc2cc(F)c(C(F)(F)F)c(F)c2)C(=O)N2C[C@H](OCC)C[C@H]2C(=O)NC2(CCC2)C(=O)N(C)[C@@H](C2CCCC2)C(=O)N(C)[C@H](C(=O)N(C)C)CC(=O)N1C [PP0695],C (A compound having a KD ratio of 0.1 or more and less than 3 is denoted as C),0.015,C (A compound having a KD ratio of 0.1 or more and less than 3 is denoted as C)
C#CC[C@H]1C(=O)N[C@@H]([C@@H](C)CC)C(=O)N(C)CC(=O)N(C)[C@H]2CCCCN(C2=O)[C@@H](Cc2ccc(C(F)(F)F)cc2)C(=O)N(C)CC(=O)N[C@@H](CCc2cc(F)c(C(F)(F)F)c(F)c2)C(=O)N2C[C@H](OCC)C[C@H]2C(=O)NC2(CCC2)C(=O)N(C)[C@@H](C2CCCC2)C(=O)N(C)[C@H](C(=O)N(C)C)CC(=O)N1C [PP0696],B (a compound having 3 or more and less than 10 is denoted as B),0.012,B (a compound having 3 or more and less than 10 is denoted as B)
CCO[C@@H]1C[C@H]2C(=O)NC3(CCC3)C(=O)N(C)[C@@H](C3CCCC3)C(=O)N(C)[C@H](C(=O)N(C)C)CC(=O)N(C)[C@@H](CC3CC3)C(=O)N[C@@H]([C@@H](C)CC)C(=O)N(C)CC(=O)N(C)[C@H]3CCCCN(C3=O)[C@@H](Cc3ccc(C(F)(F)F)cc3)C(=O)N(C)CC(=O)N[C@@H](CCc3cc(F)c(C(F)(F)F)c(F)c3)C(=O)N2C1 [PP0697],C (A compound having a KD ratio of 0.1 or more and less than 3 is denoted as C),0.021,C (A compound having a KD ratio of 0.1 or more and less than 3 is denoted as C)
